Results from US6479482B2, “Alkylamine derivatives of dihydropyridine NPY antagonists” (Bristol-Myers Squibb Company, priority 2000, dated 2002).

Legend:
[1] = biological target: T1, I-125 Bolton-Hunter labeled NPY in human neuroblastoma cells (SK-N-MC) (Homo sapiens, UniProt P25929); settings: cited from earlier work
T1 construct: displaces I-125 Bolton-Hunter labeled NPY in human neuroblastoma cells (SK-N-MC); endogenous in cells; host or cells: SK-N-MC human neuroblastoma cells
T1 sequence (P25929 1-384): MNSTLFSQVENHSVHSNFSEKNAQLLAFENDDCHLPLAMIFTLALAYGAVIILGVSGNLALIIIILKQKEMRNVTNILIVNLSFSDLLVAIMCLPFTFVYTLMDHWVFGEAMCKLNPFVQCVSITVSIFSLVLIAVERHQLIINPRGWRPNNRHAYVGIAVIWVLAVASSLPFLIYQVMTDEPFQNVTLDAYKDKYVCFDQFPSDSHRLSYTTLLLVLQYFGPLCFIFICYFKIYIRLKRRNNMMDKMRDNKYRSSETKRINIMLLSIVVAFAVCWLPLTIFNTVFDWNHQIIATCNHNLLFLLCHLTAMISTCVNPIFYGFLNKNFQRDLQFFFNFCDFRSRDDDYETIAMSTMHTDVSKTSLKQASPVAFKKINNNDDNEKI

[2] = system: NPY-induced increase in intracellular Ca^++ in SK-N-MC cells; settings: cited from earlier work
[3] = system: NPY-induced pressor response; settings: pithed rat; cited from earlier work
[4] = system: NPY-induced contractions in guinea pig basilar artery; settings: cited from earlier work
[5] = system: NPY-induced Ca^++ entry in HEL cells; settings: cited from earlier work
[6] = biological target: T2, I-125 labeled NPY and PYY in human neuroblastoma cells (Homo sapiens, UniProt P25929); settings: cited from earlier work
T2 construct: displacing I-125 labeled NPY and PYY in human neuroblastoma cells; endogenous in cells
T2 sequence (P25929 1-384): T1 sequence (P25929 1-384)

[7] = system: NPY-related increases in diastolic blood pressure; settings: anesthetized guinea pig; cited from earlier work

SMILES | melting point [°C] | other results
COC(=O)C1=C(C)NC(C)=C(C(=O)OC)C1c1cccc(NC(=O)NCCCN2CCN(CC3CC3)CC2)c1.Cl.Cl | 145 to 150 | –
COC(=O)C1=C(C)NC(C)=C(C(=O)OC)C1c1cccc(NC(=O)NCCCN2CCN(C(C)(C)C)CC2)c1.Cl.Cl | 175 to 180 | –
COC(=O)C1=C(C)NC(C)=C(C(=O)OC)C1c1cccc(NC(=O)NCCCN2CCN(C3CCCC3)CC2)c1.Cl.Cl | 195 to 200 | –
COC(=O)C1=C(C)NC(C)=C(C(=O)OC)C1c1cccc(NC(=O)NCCCN2CCNCC2)c1.Cl.Cl | 120 to 130 | –
COC(=O)C1=C(C)NC(C)=C(C(=O)OC)C1c1cccc(NC(=O)NCCCN2CCC(=O)CC2)c1.Cl | 70 to 75 | –
CCN1CCN(CCCNC(=O)Nc2cccc(C3C(C(=O)OC)=C(C)NC(C)=C3C(=O)OC)c2)CC1.Cl.Cl | 120 to 125 | –
CCCN1CCN(CCCNC(=O)Nc2cccc(C3C(C(=O)OC)=C(C)NC(C)=C3C(=O)OC)c2)CC1.Cl.Cl | 190 to 200 | –
COC(=O)C1=C(C)NC(C)=C(C(=O)OC)C1c1cccc(NC(=O)NCCCN2CCN(C(C)C)CC2)c1.Cl.Cl | 170 to 180 | –
CCCCN1CCN(CCCNC(=O)Nc2cccc(C3C(C(=O)OC)=C(C)NC(C)=C3C(=O)OC)c2)CC1.Cl.Cl | 145 to 150 | –
COC(=O)C1=C(C)NC(C)=C(C(=O)OC)C1c1cccc(NC(=O)NCCCN2CCN(CC(C)C)CC2)c1.Cl.Cl | 165 to 170 | –
NC(N)=NCCC[C@@H](NC(=O)C(c1ccccc1)c1ccccc1)C(=O)NCc1ccc(O)cc1 [BIBP 3226] | – | displacement of I-125 Bolton-Hunter labeled NPY [1]: displaces; antagonism of NPY-induced increase in intracellular Ca++ [2]: antagonized; antagonism of NPY-induced pressor response [3]: antagonizing
O=P(O)(O)OC1[C@H](OP(=O)(O)O)[C@H](O)C(O)[C@H](O)[C@H]1OP(=O)(O)O (stereo partly drawn) [D-Myo-inositol-1,2,6-triphosphate] | – | antagonism of NPY-induced contractions [4]: potent but non-competitive antagonist
COC(=O)C1=C(C)NC(C)=C(C(=O)OC)C1c1cccc(NC(=O)NCCCN2CCN(C(=O)OC(C)(C)C)CC2)c1 [Example 13, 4-[3-[[[[3-[4-[(1,1-Dimethylethoxy)carbonyl]-1-piperazinyl]propyl]amino]-carbonyl]amino]phenyl]-1,4-dihydro-2,6-dimethyl-3,5-pyridinedicarboxylic acid, dimethyl ester] | 125 to 130 | –
COC(=O)C1=C(C)NC(C)=C(C(=O)OC)C1c1cccc(NC(=O)NCCCN2CCC3(CC2)OCCO3)c1 [Example 14, 4-[3-[[[[3-(1,4-Dioxa-8-azaspiro[4.5]decan-8-yl)propyl]amino]carbonyl]-amino]phenyl]-1,4-dihydro-2,6-dimethyl-3,5-pyridinedicarboxylic acid, dimethyl ester] | 100 to 105 | –
COC(=O)C1=C(C)NC(C)=C(C(=O)OC)C1c1ccc(F)c(NC(=O)NCCCN2CCC(C)CC2)c1 [Example 17, 4-[4-Fluoro-3-[[[[3-(4-methyl-1-piperidinyl)propyl]amino]carbonyl]-amino]phenyl]-1,4-dihydro-2,6-dimethyl-3,5-pyridinedicarboxylic acid, dimethyl ester] | 188 to 190 | –
COC(=O)C1=C(C)NC(C)=C(C(=O)OC)C1c1ccc(F)c(NC(=O)NCCCN2CCC(C(C)C)CC2)c1 [Example 20, 4-[4-Fluoro-3-[[[[3-[4-(1-methylethyl)-1-piperidinyl]propyl]amino]-carbonyl]amino]phenyl]-1,4-dihydro-2,6-dimethyl-3,5-pyridinedicarboxylic acid, dimethyl ester] | 176 to 179 | –
COC(=O)C1=C(C)NC(C)=C(C(=O)OC)C1c1ccc(F)c(NC(=O)NCCCN2CCC(C(C)(C)C)CC2)c1 [Example 21, 4-[4-Fluoro-3-[[[[3-[4-(1,1-dimethylethyl)-1-piperidinyl]propyl]amino]-carbonyl]amino]phenyl]-1,4-dihydro-2,6-dimethyl-3,5-pyridinedicarboxylic acid, dimethyl ester] | 191 to 193 | –
N=C(NCCCc1cnc[nH]1)NCCC(c1cc(F)cc(F)c1)c1ccccn1 (stereo not shown) [He 90481] | – | pA2, antagonism of NPY-induced Ca++ entry [5]: 4.43
CN(C)CC1CCC(CN=C(N)c2ccc(C[C@@H](NC(=O)[C@@H](Cc3ccccc3)NS(=O)(=O)c3ccc4ccccc4c3)C(=O)N3CCCC3)cc2)CC1 (stereo partly shown) [SR 120819A] | – | displacement of I-125 labeled NPY and PYY [6]: displacing; antagonism of NPY-related increases in diastolic blood pressure [7]: antagonized
